In patent publication US9603849B2, “Uses of orvepitant” (NERRE THERAPEUTICS LIMITED, priority 2012, dated 2017):

Target: NK-1 receptor (Meriones unguiculatus, UniProt Q5DUB1)
Test: GR73632-induced hindlimb scratching behaviour in the Mongolian gerbil
Assay type: in vivo
Conditions: mean ± s.e.m.
Text: 5) Particularly the antipruritic effect of orvepitant maleate was determinated in GR73632-induced scratching behaviour in the Mongolian gerbil. According to this metholody the scratching behaviour was induced by GR73632 which is a specific agonist of the NK-1 receptor.
72 male Mongolian gerbils (58-78 g) after a minimum habituation period of 10 days prior to study commencement, were acclimatised to the procedure room in their home cages, with food and water available ad libitum. The day before the experiment was due to commence a 1 cm×1 cm squared area between the shoulder blades was shaved free of hair.
Habituation to the apparatus (custom made observation chambers; approximately 30×30 cm; 2 animals per observation) took place 30 minutes prior to induction of scratching behaviours using GR73632.
A 10 mg/kg stock solution of orvepitant maleate was made by dissolving 20 mg of orvepitant maleate Form 1 in 20 mls of vehicle (5% DMSO & 95% HPMC (0.5%)). This stock solution was serially diluted to prepare doses of 0.1, 0.3, 1.0, 3.0 or 10 mg/kg orvepitant maleate.
At T=−60 mins mongolian gerbils were dosed with orvepitant maleate (0.1, 0.3, 1.0, 3.0 or, 10 mg/kg p.o.). Gerbils were allocated to dosing groups based on a Latin square design. 30 Minutes later (T=−30 mins) gerbils were placed into the observation chamber for 30 minutes habituation. At T=0 Gerbils were then dosed with GR73632 (30 nmol/100 uL; i.d.) between the shoulder blades and their subsequent hindlimb scratching behaviour recorded using GeoVision surveillance software over a 30 minute period.
Playing back of the video served for counting scratching behaviour. […] Cumulative frequency and duration (secs) of scratching was scored in 5 min epochs. Treatment groups were randomised based on a Latin Square design. The experimenter was blinded to the treatment groups.
Repeated measures ANOVA followed by Planned comparison test using GraphPad Prism. (p<0.05 considered significant). Data were analysed by comparing treatment groups to control group at each time point.

NK-1 receptor, sequence (Q5DUB1 whole entry): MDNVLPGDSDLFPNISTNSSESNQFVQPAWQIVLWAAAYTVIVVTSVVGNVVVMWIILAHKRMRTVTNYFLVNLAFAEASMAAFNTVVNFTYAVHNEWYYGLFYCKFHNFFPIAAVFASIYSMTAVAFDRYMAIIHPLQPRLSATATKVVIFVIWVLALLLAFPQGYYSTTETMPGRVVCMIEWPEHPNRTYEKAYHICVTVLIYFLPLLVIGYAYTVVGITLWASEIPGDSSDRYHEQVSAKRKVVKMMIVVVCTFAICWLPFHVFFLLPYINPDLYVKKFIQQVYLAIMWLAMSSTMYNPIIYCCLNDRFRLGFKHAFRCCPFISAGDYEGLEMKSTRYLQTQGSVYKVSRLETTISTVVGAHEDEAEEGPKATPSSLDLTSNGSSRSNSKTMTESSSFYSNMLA

SMILES: Cc1cc(F)ccc1[C@H]1C[C@@H](N2CCN3C(=O)CC[C@H]3C2)CCN1C(=O)N(C)[C@H](C)c1cc(C(F)(F)F)cc(C(F)(F)F)c1.O=C(O)/C=C\C(=O)O [orvepitant maleate, 2-(R)-(4-Fluoro-2-methyl-phenyl)-4-(S)-((8aS)-6-oxo-hexahydro-pyrrolo[1,2-a]-pyrazin-2-yl)-piperidine-1-carboxylic acid [1-(R)-(3,5-bis-trifluoromethyl-phenyl)-ethyl]-methylamide maleate]
- Cumulative duration of hindlimb scratching (0.1 mg/kg p.o., 0-5 mins after GR73632 i.d., vehicle 5.35 ± 1.37): NS 2.76 ± 0.71 secs
- Cumulative frequency of hindlimb scratching (0.1 mg/kg p.o., 0-5 mins after GR73632 i.d., vehicle 7.75 ± 2.18): NS4.08 ± 1.45
- Cumulative duration of hindlimb scratching (0.1 mg/kg p.o., 5-10 mins after GR73632 i.d., vehicle 11.71 ± 1.93): **4.20 ± 0.85 secs
- Cumulative frequency of hindlimb scratching (0.1 mg/kg p.o., 5-10 mins after GR73632 i.d., vehicle 14.41 ± 2.49): **5.83 ± 1.55
- Cumulative duration of hindlimb scratching (0.1 mg/kg p.o., 10-15 mins after GR73632 i.d., vehicle 16.54 ± 2.58): ***5.96 ± 1.16 secs
- Cumulative frequency of hindlimb scratching (0.1 mg/kg p.o., 10-15 mins after GR73632 i.d., vehicle 20.25 ± 2.97): ***7.91 ± 1.74
- Cumulative duration of hindlimb scratching (0.1 mg/kg p.o., 15-20 mins after GR73632 i.d., vehicle 20.08 ± 2.83): ***7.86 ± 1.67 secs
- Cumulative frequency of hindlimb scratching (0.1 mg/kg p.o., 15-20 mins after GR73632 i.d., vehicle 24.33 ± 3.22): ***9.66 ± 1.92
- Cumulative duration of hindlimb scratching (0.1 mg/kg p.o., 20-25 mins after GR73632 i.d., vehicle 23.19 ± 2.80): ***8.99 ± 2.09 secs
- Cumulative frequency of hindlimb scratching (0.1 mg/kg p.o., 20-25 mins after GR73632 i.d., vehicle 28.25 ± 3.26): ***10.91 ± 2.07
- Cumulative duration of hindlimb scratching (0.1 mg/kg p.o., 25-30 mins after GR73632 i.d., vehicle 25.69 ± 3.026): ***9.67 ± 2.14 secs
- Cumulative frequency of hindlimb scratching (0.1 mg/kg p.o., 25-30 mins after GR73632 i.d., vehicle 32.00 ± 3.60): ***11.58 ± 2.12
- Cumulative duration of hindlimb scratching (0.3 mg/kg p.o., 0-5 mins after GR73632 i.d., vehicle 5.35 ± 1.37): NS 2.06 ± 0.62 secs
- Cumulative frequency of hindlimb scratching (0.3 mg/kg p.o., 0-5 mins after GR73632 i.d., vehicle 7.75 ± 2.18): NS3.00 ± 0.88
- Cumulative duration of hindlimb scratching (0.3 mg/kg p.o., 5-10 mins after GR73632 i.d., vehicle 11.71 ± 1.93): **3.50 ± 0.88 secs
- Cumulative frequency of hindlimb scratching (0.3 mg/kg p.o., 5-10 mins after GR73632 i.d., vehicle 14.41 ± 2.49): ***4.91 ± 1.15
- Cumulative duration of hindlimb scratching (0.3 mg/kg p.o., 10-15 mins after GR73632 i.d., vehicle 16.54 ± 2.58): ***5.86 ± 1.44 secs
- Cumulative frequency of hindlimb scratching (0.3 mg/kg p.o., 10-15 mins after GR73632 i.d., vehicle 20.25 ± 2.97): ***7.50 ± 1.56
- Cumulative duration of hindlimb scratching (0.3 mg/kg p.o., 15-20 mins after GR73632 i.d., vehicle 20.08 ± 2.83): ***7.09 ± 1.63 secs
- Cumulative frequency of hindlimb scratching (0.3 mg/kg p.o., 15-20 mins after GR73632 i.d., vehicle 24.33 ± 3.22): ***8.66 ± 1.61
- Cumulative duration of hindlimb scratching (0.3 mg/kg p.o., 20-25 mins after GR73632 i.d., vehicle 23.19 ± 2.80): ***8.58 ± 1.93 secs
- Cumulative frequency of hindlimb scratching (0.3 mg/kg p.o., 20-25 mins after GR73632 i.d., vehicle 28.25 ± 3.26): ***10.00 ± 1.62
- Cumulative duration of hindlimb scratching (0.3 mg/kg p.o., 25-30 mins after GR73632 i.d., vehicle 25.69 ± 3.026): ***10.27 ± 2.17 secs
- Cumulative frequency of hindlimb scratching (0.3 mg/kg p.o., 25-30 mins after GR73632 i.d., vehicle 32.00 ± 3.60): ***11.75 ± 1.90
- Cumulative duration of hindlimb scratching (1.0 mg/kg p.o., 0-5 mins after GR73632 i.d., vehicle 5.35 ± 1.37): NS 2.74 ± 1.06 secs
- Cumulative frequency of hindlimb scratching (1.0 mg/kg p.o., 0-5 mins after GR73632 i.d., vehicle 7.75 ± 2.18): NS3.75 ± 1.30
- Cumulative duration of hindlimb scratching (1.0 mg/kg p.o., 5-10 mins after GR73632 i.d., vehicle 11.71 ± 1.93): **4.51 ± 1.05 secs
- Cumulative frequency of hindlimb scratching (1.0 mg/kg p.o., 5-10 mins after GR73632 i.d., vehicle 14.41 ± 2.49): **5.91 ± 1.25
- Cumulative duration of hindlimb scratching (1.0 mg/kg p.o., 10-15 mins after GR73632 i.d., vehicle 16.54 ± 2.58): ***4.92 ± 1.13 secs
- Cumulative frequency of hindlimb scratching (1.0 mg/kg p.o., 10-15 mins after GR73632 i.d., vehicle 20.25 ± 2.97): ***6.41 ± 1.29
- Cumulative duration of hindlimb scratching (1.0 mg/kg p.o., 15-20 mins after GR73632 i.d., vehicle 20.08 ± 2.83): ***6.02 ± 1.28 secs
- Cumulative frequency of hindlimb scratching (1.0 mg/kg p.o., 15-20 mins after GR73632 i.d., vehicle 24.33 ± 3.22): ***8.00 ± 1.39
- Cumulative duration of hindlimb scratching (1.0 mg/kg p.o., 20-25 mins after GR73632 i.d., vehicle 23.19 ± 2.80): ***7.48 ± 1.55 secs
- Cumulative frequency of hindlimb scratching (1.0 mg/kg p.o., 20-25 mins after GR73632 i.d., vehicle 28.25 ± 3.26): ***9.66 ± 1.71
- Cumulative duration of hindlimb scratching (1.0 mg/kg p.o., 25-30 mins after GR73632 i.d., vehicle 25.69 ± 3.026): ***10.00 ± 2.17 secs
- Cumulative frequency of hindlimb scratching (1.0 mg/kg p.o., 25-30 mins after GR73632 i.d., vehicle 32.00 ± 3.60): ***12.08 ± 2.25
- Cumulative duration of hindlimb scratching (3.0 mg/kg p.o., 0-5 mins after GR73632 i.d., vehicle 5.35 ± 1.37): NS 0.96 ± 0.32 secs
- Cumulative frequency of hindlimb scratching (3.0 mg/kg p.o., 0-5 mins after GR73632 i.d., vehicle 7.75 ± 2.18): NS1.58 ± 0.46
- Cumulative duration of hindlimb scratching (3.0 mg/kg p.o., 5-10 mins after GR73632 i.d., vehicle 11.71 ± 1.93): ***1.30 ± 0.38 secs
- Cumulative frequency of hindlimb scratching (3.0 mg/kg p.o., 5-10 mins after GR73632 i.d., vehicle 14.41 ± 2.49): ***2.16 ± 0.58
- Cumulative duration of hindlimb scratching (3.0 mg/kg p.o., 10-15 mins after GR73632 i.d., vehicle 16.54 ± 2.58): ***1.79 ± 0.39 secs
- Cumulative frequency of hindlimb scratching (3.0 mg/kg p.o., 10-15 mins after GR73632 i.d., vehicle 20.25 ± 2.97): ***2.83 ± 0.57
- Cumulative duration of hindlimb scratching (3.0 mg/kg p.o., 15-20 mins after GR73632 i.d., vehicle 20.08 ± 2.83): ***2.415 ± 0.47 secs
- Cumulative frequency of hindlimb scratching (3.0 mg/kg p.o., 15-20 mins after GR73632 i.d., vehicle 24.33 ± 3.22): ***3.66 ± 0.64
- Cumulative duration of hindlimb scratching (3.0 mg/kg p.o., 20-25 mins after GR73632 i.d., vehicle 23.19 ± 2.80): ***2.59 ± 0.50 secs
- Cumulative frequency of hindlimb scratching (3.0 mg/kg p.o., 20-25 mins after GR73632 i.d., vehicle 28.25 ± 3.26): ***4.00 ± 0.67
- Cumulative duration of hindlimb scratching (3.0 mg/kg p.o., 25-30 mins after GR73632 i.d., vehicle 25.69 ± 3.026): ***3.09 ± 0.61 secs
- Cumulative frequency of hindlimb scratching (3.0 mg/kg p.o., 25-30 mins after GR73632 i.d., vehicle 32.00 ± 3.60): ***4.58 ± 0.76
- Cumulative duration of hindlimb scratching (10.0 mg/kg p.o., 0-5 mins after GR73632 i.d., vehicle 5.35 ± 1.37): NS 0.57 ± 0.29 secs
- Cumulative frequency of hindlimb scratching (10.0 mg/kg p.o., 0-5 mins after GR73632 i.d., vehicle 7.75 ± 2.18): *0.91 ± 0.43
- Cumulative duration of hindlimb scratching (10.0 mg/kg p.o., 5-10 mins after GR73632 i.d., vehicle 11.71 ± 1.93): ***1.13 ± 0.38 secs
- Cumulative frequency of hindlimb scratching (10.0 mg/kg p.o., 5-10 mins after GR73632 i.d., vehicle 14.41 ± 2.49): ***1.66 ± 0.60
- Cumulative duration of hindlimb scratching (10.0 mg/kg p.o., 10-15 mins after GR73632 i.d., vehicle 16.54 ± 2.58): ***2.38 ± 0.78 secs
- Cumulative frequency of hindlimb scratching (10.0 mg/kg p.o., 10-15 mins after GR73632 i.d., vehicle 20.25 ± 2.97): ***2.58 ± 0.73
- Cumulative duration of hindlimb scratching (10.0 mg/kg p.o., 15-20 mins after GR73632 i.d., vehicle 20.08 ± 2.83): ***3.22 ± 0.84 secs
- Cumulative frequency of hindlimb scratching (10.0 mg/kg p.o., 15-20 mins after GR73632 i.d., vehicle 24.33 ± 3.22): ***3.58 ± 0.73
- Cumulative duration of hindlimb scratching (10.0 mg/kg p.o., 20-25 mins after GR73632 i.d., vehicle 23.19 ± 2.80): ***4.36 ± 1.18 secs
- Cumulative frequency of hindlimb scratching (10.0 mg/kg p.o., 20-25 mins after GR73632 i.d., vehicle 28.25 ± 3.26): ***5.00 ± 0.92
- Cumulative duration of hindlimb scratching (10.0 mg/kg p.o., 25-30 mins after GR73632 i.d., vehicle 25.69 ± 3.026): ***5.24 ± 1.35 secs
- Cumulative frequency of hindlimb scratching (10.0 mg/kg p.o., 25-30 mins after GR73632 i.d., vehicle 32.00 ± 3.60): ***5.91 ± 1.16
